Measured values from patent US20240376120A1, “CAMPTOTHECIN COMPOUND, PREPARATION METHOD THEREFOR AND USE THEREOF” (priority 2021, published 2024).
Where two headings read alike, the source gives them in different places.

Experiments:
Format in all cases: cell-based
Settings in all cases: Homo sapiens
[1] = system: MDA-MB-435s cells (human melanoma cells); assay: MDA-MB-435s cell proliferation inhibitory assay (CellTiter-Glo)
Description: (§1) • 1). […] Resuspend an appropriate amount of cell suspension to 3000 cells/100 μL according to the count, mixed well and then put the corresponding number of cells into a 96-well plate by pipette. • 3). Each hole of the edge was sealed with 100 μL DPBS and put into an incubator for culture. • 4). Day 1 drug addition: Prepare the storage solution of the compound to be tested 1 hour in advance. 24 h after plating, the culture medium was gradiently diluted to a concentration twice the final concentration of each group. Take out the plated cells from the incubator and add 100 μL of the corresponding 2-fold concentration medium to each well by pipette. • 5). Day 1 detected: Take out an appropriate amount of CTG 1 h in advance and the plate was allowed to equilibrate at room temperature for 30 min. 100 μL of CTG was added to each well and shaken for 5 mins, and then standed in the dark for 5 mins, the luminescence value was detected by ELISA. • 6). Day 4 detection: Take an appropriate amount of CTG 1 h in advance and rewarm it at room temperature in the dark. At the same time, take out the plate to be tested from the incubator and leave it to equilibrate at room temperature for 30 minutes; 72 h after adding the drug, 100 μL of culture medium was sucked out with pipette carefully from each cell well, and 100 μL of CTG was added. The mixture was shaken for 5 min, and after equilibration in the dark for 5 min, the luminescence value was detected with ELISA. • 7). Analyze data and write detailed experimental records.
Collect data and convert it into survival rate: Inhibition rate (%)=(100−(OD value of compound−OD value on the first day)/(OD value of control well-OD value on the first day))×100%
(§2) Input the compound into graphpad prism to obtain the corresponding IC50 value.

[2] = system: MDA-MB-231 cells (human breast cancer cells); assay: MDA-MB-231 cell proliferation inhibitory assay (CellTiter-Glo)
Description: as §1, §2

[3] = system: MCF-7 cells (human breast cancer cells); assay: MCF-7 cell proliferation inhibitory assay (CellTiter-Glo)
Description: • 1). […] Resuspend an appropriate amount of cell suspension to 4000 cells/100 μL according to the count, mixed well and then put the corresponding number of cells into a 96-well plate by pipette. • 3). Each hole of the edge was sealed with 100 μL DPBS and put into an incubator for culture. • 4). Day 1 drug addition: Prepare the storage solution of the compound to be tested 1 hour in advance. 24 h after plating, the culture medium was gradiently diluted to a concentration twice the final concentration of each group. Take out the plated cells from the incubator and add 100 μL of the corresponding 2-fold concentration medium to each well by pipette.
Day 1 detected: Take out the plate to be tested and an appropriate amount of CTG in advance and rewarm it at room temperature in the dark. 50 μL of CTG was added to each well at 24 h. Shake with the oscillator for 5 minutes, and after balancing in the dark for 5 minutes, detect the luminescence value with a microplate reader; The mixture was shaken for 5 min, and after equilibration in the dark for 5 min, the luminescence value was detected with ELISA. • 6). Day 4 detection: Take an appropriate amount of CTG 1 h in advance and rewarm it at room temperature in the dark. At the same time, take out the plate to be tested from the incubator and leave it to equilibrate at room temperature for 30 minutes; 72 h after adding the drug, 100 μL of culture medium was sucked out with pipette carefully from each cell well, and 50 μL of CTG was added. The mixture was shaken for 5 min, and after equilibration in the dark for 5 min, the luminescence value was detected with ELISA analyzer. • 7). Data analysis and processed.
Collect data and convert it into survival rate: Inhibition rate (%)=(100−(OD value of compound-OD value on the first day)/(OD value of control well-OD value on the first day))×100%
as §2

[4] = MDA-MB-435S, 72 h, read-out: Proliferation inhibition IC50
[5] = MDA-MB-231, 72 h, read-out: Proliferation inhibition IC50
[6] = MCF7, 72 h, read-out: Proliferation inhibition IC50
[7] = MDA-MB-435s cells, 72 h after adding the drug, Table 3, read-out: Proliferation inhibition IC50
[8] = MDA-MB-231 cells, 72 h after adding the drug, Table 2, read-out: Proliferation inhibition IC50
[9] = MCF7, MCF-7 cells, 72 h after adding the drug, Table 1, read-out: Proliferation inhibition IC50

| Compound | IC50 [1, 4] | IC50 [2, 5] | IC50 [3, 6] | also measured |
| --- | --- | --- | --- | --- |
| CC[C@@]1(O)C(=O)OCc2c1cc1n(c2=O)Cc2c-1nc1cc(F)c(C)cc1c2[C@H](C)NC(=O)[C@@H](O)C1CC1 [Example 17] | 6.3 nM | 96.7 nM | 7.8 nM |  |
| CC[C@@]1(O)C(=O)OCc2c1cc1n(c2=O)Cc2c-1nc1cc(F)c(C)cc1c2[C@@H](N)C(F)(F)F [Example 40a] | 4.12 nM | 50 nM | 6.6 nM |  |
| CC[C@@]1(O)C(=O)OCc2c1cc1n(c2=O)Cc2c-1nc1cc(F)c(C)cc1c2[C@H](N)CO [Example 39b] | 1.65 nM | 9.1 nM | 4.6 nM |  |
| CC[C@@]1(O)C(=O)OCc2c1cc1n(c2=O)Cc2c-1nc1ccc(C(F)F)cc1c2[C@@H](C)N [Example 32b] | 1.85 nM | 20.2 nM | 5.5 nM |  |
| CC[C@@]1(O)C(=O)OCc2c1cc1n(c2=O)Cc2c-1nc1cc(F)c(C)cc1c2[C@@H]1CCN1 [Example 38a] | 1.12 nM | 16.6 nM | 5.6 nM |  |
| CC[C@@]1(O)C(=O)OCc2c1cc1n(c2=O)Cc2c-1nc1cc(F)c(C)cc1c2[C@H](C)NC [Example 21] | 1.2 nM | 20.2 nM | 4.2 nM |  |
| CC[C@@]1(O)C(=O)OCc2c1cc1n(c2=O)Cc2c-1nc1cc(F)c(C)cc1c2[C@@H](C)NS(C)(=O)=O [Example 26a] | 2.8 nM | 89.2 nM | 13.3 nM |  |
| CC[C@@]1(O)C(=O)OCc2c1cc1n(c2=O)Cc2c-1nc1cc(F)c(C)c(C)c1c2[C@@H](C)N [Example 29b] | 0.72 nM | 6.6 nM | 2.1 nM |  |
| CC[C@@]1(O)C(=O)OCc2c1cc1n(c2=O)Cc2c-1nc1ccccc1c2[C@H](C)N [Example 4] | 16.3 nM | 280 nM | 10.2 nM |  |
| CC[C@@]1(O)C(=O)OCc2c1cc1n(c2=O)Cc2c-1nc1cc(F)c(C)cc1c2C1CNC1 [Example 37] | 2.33 nM | 90.8 nM | 5.1 nM |  |
| [2H]C([2H])([2H])[C@H](N)c1c2c(nc3cc(F)c(C)cc13)-c1cc3c(c(=O)n1C2)COC(=O)[C@]3(O)CC [Example 43a] |  |  |  | IC50 [1, 7]: 3.31 nM; IC50 [2, 8]: 16.8 nM; IC50 [3, 9]: 5.1 nM |
| CC[C@@]1(O)C(=O)OCc2c1cc1n(c2=O)Cc2c-1nc1cc(F)c(C)cc1c2[C@@H](N)CO [Example 39a] | 2.12 nM | 25.9 nM | 9.8 nM |  |
| CC[C@@]1(O)C(=O)OCc2c1cc1n(c2=O)Cc2c-1nc1cc(F)c(C)cc1c2[C@H](C)NC(=O)C1(O)CC1 [Example 16] | 8.2 nM | 100 nM | 12.3 nM |  |
| CC[C@@]1(O)C(=O)OCc2c1cc1n(c2=O)Cc2c-1nc1cc(F)c(C)cc1c2[C@@H](C)NCCN(C)C [Example 25b] | 9.6 nM | 60.9 nM | 35.1 nM |  |
| CC[C@@]1(O)C(=O)OCc2c1cc1n(c2=O)Cc2c-1nc1ccc(OC)cc1c2[C@H](C)N [Example 31a] | 3.8 nM | 15.1 nM | 8.2 nM |  |
| CC[C@@]1(O)C(=O)OCc2c1cc1n(c2=O)Cc2c-1nc1cc(F)c(C)cc1c2[C@@H](C)O [Example 12d] | 1.6 nM | 12.3 nM | 6.8 nM | IC50 ([1]; MDA-MB-435S, read-out: MDA-MB-435s Proliferation inhibition IC50): 1.6 nM; IC50 ([2]; MDA-MB-231, read-out: MDA-MB-231 Proliferation inhibition IC50): 12.3 nM; IC50 ([3]; MCF7, read-out: MCF-7 Proliferation inhibition IC50): 6.8 nM |
| [2H]C([2H])([2H])c1cc2c([C@H](C)N)c3c(nc2cc1F)-c1cc2c(c(=O)n1C3)COC(=O)[C@]2(O)CC [Example 23] | 0.76 nM | 7.7 nM | 2.5 nM |  |
| CC[C@@]1(O)C(=O)OCc2c1cc1n(c2=O)Cc2c-1nc1cc(F)c(C)cc1c2[C@@H](C)NCCNC [Example 25d] |  |  |  | IC50 [1, 7]: 5.2 nM; IC50 [2, 8]: 50.3 nM; IC50 [3, 9]: 22.3 nM |

| Compound | IC50 [1, 4] | IC50 [2, 5] | IC50 [3, 6] | also measured |
| --- | --- | --- | --- | --- |
| CC[C@@]1(O)C(=O)OCc2c1cc1n(c2=O)Cc2c-1nc1cc(F)c(F)cc1c2[C@H](C)N [Example 33a] | 2.36 nM | 10.9 nM | 6.5 nM |  |
| CC[C@@]1(O)C(=O)OCc2c1cc1n(c2=O)Cc2c-1nc1cc(F)c(C)cc1c2[C@H](N)C(F)(F)F [Example 40b] | 2.65 nM | 25.7 nM | 3.5 nM |  |
| CC[C@@]1(O)C(=O)OCc2c1cc1n(c2=O)Cc2c-1nc1cc(F)c(C)cc1c2[C@@H](C)N1CCN(C)CC1 [Example 42b] | 2.56 nM | 75.6 nM | 6.6 nM |  |
| CC[C@@]1(O)C(=O)OCc2c1cc1n(c2=O)Cc2c-1nc1ccc(OC)cc1c2[C@@H](C)N [Example 31b] | 1 nM | 9.2 nM | 4.1 nM |  |
| CC[C@@]1(O)C(=O)OCc2c1cc1n(c2=O)Cc2c-1nc1cc(F)c(C)cc1c2[C@H](C)NCCNC [Example 25c] | 3.3 nM | 35.6 nM | 15.3 nM |  |
| CC[C@@]1(O)C(=O)OCc2c1cc1n(c2=O)Cc2c-1nc1cc(F)c(C)cc1c2[C@@H]1CCCN1 [Example 8] | 35.2 nM | 210 nM | 10.3 nM |  |
| CC[C@@]1(O)C(=O)OCc2c1cc1n(c2=O)Cc2c-1nc1ccc(OC)cc1c2[C@H](C)O [Example 31c] | 5.8 nM | 18.3 nM | 10.2 nM |  |
| CC[C@@]1(O)C(=O)OCc2c1cc1n(c2=O)Cc2c-1nc1cc(F)c(C)cc1c2[C@H](C)N1CCNCC1 [Example 41a] | 5.12 nM | 100 nM | 28.6 nM |  |
| [2H]C([2H])([2H])[C@@H](N)c1c2c(nc3cc(F)c(C)cc13)-c1cc3c(c(=O)n1C2)COC(=O)[C@]3(O)CC [Example 43b] |  |  |  | IC50 [1, 7]: 0.65 nM; IC50 [2, 8]: 8 nM; IC50 [3, 9]: 2.7 nM |
| CC[C@@]1(O)C(=O)OCc2c1cc1n(c2=O)Cc2c-1nc1cc3c(cc1c2[C@H](C)N)OCO3 [Example 35a] | 3.33 nM | 20.6 nM | 10.3 nM |  |
| CC[C@@]1(O)C(=O)OCc2c1cc1n(c2=O)Cc2c-1nc1cc(F)c(C)cc1c2[C@@H](C)N1CCNCC1 [Example 41b] | 3.86 nM | 30.5 nM | 19.6 nM |  |
| CC[C@@]1(O)C(=O)OCc2c1cc1n(c2=O)Cc2c-1nc1ccc(C(F)F)cc1c2[C@H](C)N [Example 32a] | 3.37 nM | 16.7 nM | 7.5 nM |  |
| CC[C@@]1(O)C(=O)OCc2c1cc1n(c2=O)Cc2c-1nc1cc(F)c(C(F)(F)F)cc1c2[C@H](C)N [Example 34a] | 4.37 nM | 11.6 nM | 9.6 nM |  |
| CC[C@@]1(O)C(=O)OCc2c1cc1n(c2=O)Cc2c-1nc1cc3c(cc1c2[C@@H](C)N)OCO3 [Example 35b] | 1.15 nM | 7.1 nM | 6.2 nM |  |
| CC[C@@]1(O)C(=O)OCc2c1cc1n(c2=O)Cc2c-1nc1cc(F)c(C)cc1c2[C@H](C)N [Example 2] | 2.3 nM | 15.7 nM | 2.6 nM |  |
| CC[C@@]1(O)C(=O)OCc2c1cc1n(c2=O)Cc2c-1nc1cc(F)c(C)cc1c2[C@H](C)NCCN(C)C [Example 25a] | 6.3 nM | 40.2 nM | 25.6 nM |  |
| CC[C@@]1(O)C(=O)OCc2c1cc1n(c2=O)Cc2c-1nc1ccc(O)cc1c2[C@H](C)N [Example 6] | 36.8 nM | 1100 nM | 8.4 nM |  |
| CC[C@@]1(O)C(=O)OCc2c1cc1n(c2=O)Cc2cc3ccccc3nc2-1 [Camptothecin] | 10.2 nM |  | 42.2 nM |  |
